Source: patent US20220313835A1, “AMINOQUINOLINE COMPOUNDS, IMMUNOCONJUGATES, AND USES THEREOF” (BOLT BIOTHERAPEUTICS, INC., priority 2019, published 2022)
pEC50: −log10 of the molar value.

Tests used:
human TLR7 = biological target: T1, human TLR7 (Homo sapiens, UniProt Q9NYK1); test: HEK Reporter Assay, HEK293 NFKB reporter cells expressing human TLR7; type: cell-based; details: read-out: HEK-293 hTLR7 EC50
T1 construct: host or cells: HEK293 NF-kB reporter cells
T1 sequence (Q9NYK1 27-1049): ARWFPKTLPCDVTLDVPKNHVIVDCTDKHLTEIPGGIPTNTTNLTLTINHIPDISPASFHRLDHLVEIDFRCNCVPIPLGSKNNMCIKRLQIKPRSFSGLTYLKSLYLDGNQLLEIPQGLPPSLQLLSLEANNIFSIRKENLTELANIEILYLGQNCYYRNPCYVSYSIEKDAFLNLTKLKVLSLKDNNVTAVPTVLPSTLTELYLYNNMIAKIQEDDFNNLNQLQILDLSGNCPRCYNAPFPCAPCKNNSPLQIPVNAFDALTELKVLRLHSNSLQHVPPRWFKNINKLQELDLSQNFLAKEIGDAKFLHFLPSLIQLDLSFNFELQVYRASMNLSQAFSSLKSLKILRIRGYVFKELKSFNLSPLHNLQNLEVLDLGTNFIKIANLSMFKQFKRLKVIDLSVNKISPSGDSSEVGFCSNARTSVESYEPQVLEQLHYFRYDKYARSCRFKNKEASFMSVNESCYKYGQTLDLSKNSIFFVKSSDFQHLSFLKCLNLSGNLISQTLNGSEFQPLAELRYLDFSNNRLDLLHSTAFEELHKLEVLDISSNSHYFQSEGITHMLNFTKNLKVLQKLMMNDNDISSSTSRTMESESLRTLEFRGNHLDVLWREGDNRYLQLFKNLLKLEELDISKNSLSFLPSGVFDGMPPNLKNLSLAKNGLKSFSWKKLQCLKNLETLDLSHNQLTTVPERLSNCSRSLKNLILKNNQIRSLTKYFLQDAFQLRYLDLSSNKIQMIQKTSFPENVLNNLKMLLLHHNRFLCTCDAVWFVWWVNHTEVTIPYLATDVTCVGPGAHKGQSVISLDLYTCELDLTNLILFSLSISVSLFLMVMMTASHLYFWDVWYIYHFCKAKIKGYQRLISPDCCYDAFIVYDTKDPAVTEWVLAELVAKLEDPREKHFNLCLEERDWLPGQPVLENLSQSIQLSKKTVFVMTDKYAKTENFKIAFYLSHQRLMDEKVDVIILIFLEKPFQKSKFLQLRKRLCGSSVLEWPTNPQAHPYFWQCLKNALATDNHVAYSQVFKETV
Description: (§1) Each compound was characterized by mass spectrometry and shown to have the mass indicated. Activity against HEK293 NFKB reporter cells expressing human TLR7 or human TLR8 was measured according to Example 31.
(§2) HEK293 reporter cells expressing human TLR7 or human TLR8 were purchased from Invivogen and vendor protocols were followed for cellular propagation and experimentation. Briefly, cells were grown to 80-85% confluence at 5% CO2 in DMEM supplemented with 10% FBS, Zeocin, and Blasticidin. Cells were then seeded in 96-well flat plates at 4×10^4 cells/well with substrate containing HEK detection medium and immunostimulatory molecules. Activity was measured using a plate reader at 620-655 nm wavelength.

human TLR8 = biological target: T2, human TLR8 (Homo sapiens, UniProt Q9NR97); test: HEK Reporter Assay, HEK293 NFKB reporter cells expressing human TLR8; type: cell-based; details: read-out: HEK-293 hTLR8 EC50
T2 construct: host or cells: HEK293 NF-kB reporter cells
T2 sequence (Q9NR97 27-1041): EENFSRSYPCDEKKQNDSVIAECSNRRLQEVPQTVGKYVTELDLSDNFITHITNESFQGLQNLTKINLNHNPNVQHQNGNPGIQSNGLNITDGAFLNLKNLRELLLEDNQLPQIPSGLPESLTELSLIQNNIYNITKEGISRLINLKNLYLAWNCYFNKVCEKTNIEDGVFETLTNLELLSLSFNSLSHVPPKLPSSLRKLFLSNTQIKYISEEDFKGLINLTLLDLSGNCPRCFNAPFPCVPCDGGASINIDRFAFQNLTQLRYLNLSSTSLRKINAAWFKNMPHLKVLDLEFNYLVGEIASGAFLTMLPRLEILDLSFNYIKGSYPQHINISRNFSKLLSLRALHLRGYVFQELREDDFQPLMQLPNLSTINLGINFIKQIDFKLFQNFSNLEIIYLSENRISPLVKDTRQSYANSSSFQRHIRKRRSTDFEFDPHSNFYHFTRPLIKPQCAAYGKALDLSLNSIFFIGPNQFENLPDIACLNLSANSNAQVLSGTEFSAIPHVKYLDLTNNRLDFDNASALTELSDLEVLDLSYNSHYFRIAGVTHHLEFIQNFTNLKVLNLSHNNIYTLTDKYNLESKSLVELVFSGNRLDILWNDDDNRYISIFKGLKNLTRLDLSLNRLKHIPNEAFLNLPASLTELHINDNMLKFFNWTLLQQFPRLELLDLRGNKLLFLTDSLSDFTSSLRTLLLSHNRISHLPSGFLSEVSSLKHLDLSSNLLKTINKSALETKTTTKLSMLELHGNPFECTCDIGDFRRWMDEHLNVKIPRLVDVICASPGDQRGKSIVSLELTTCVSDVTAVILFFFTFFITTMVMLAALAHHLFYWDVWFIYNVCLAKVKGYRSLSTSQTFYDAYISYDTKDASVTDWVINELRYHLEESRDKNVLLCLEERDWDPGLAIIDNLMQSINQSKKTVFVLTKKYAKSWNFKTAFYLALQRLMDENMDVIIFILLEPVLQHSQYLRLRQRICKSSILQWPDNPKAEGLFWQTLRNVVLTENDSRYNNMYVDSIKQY
Description: as §1, §2

Row | Compound | pEC50 (human TLR7) | pEC50 (human TLR8)
1 | CCCCCc1cc2c(C#CCCCNC(=O)OC(C)(C)C)cc(-c3cccc(S(=O)(=O)N4CC(CO)C4)c3)cc2nc1N [AQ-16, tert-butyl N-[5-[2-amino-7-[3-[3-(hydroxymethyl)azetidin-1-yl]sulfonylphenyl]-3-pentyl-5-quinolyl]pent-4-ynyl]carbamate] | < 5.05 | < 5.05
2 | CCCCCc1cc2ccc(C(=O)Nc3ccc(N4CCC(C(=O)NCCN)CC4)nc3)cc2nc1N [AQ-14, 2-amino-N-(6-(4-((2-aminoethyl)carbamoyl)piperidin-1-yl)pyridin-3-yl)-3-pentylquinoline-7-carboxamide] | < 5.05 | < 5.05
3 | CCCCCc1cc2c(CCCCCNC=O)cccc2nc1N [AQ-4, N-(5-(2-amino-3-pentylquinolin-5-yl)pentyl)formamide] | < 5.05 | < 5.05
4 | CCCN(CCC)C(=O)c1cc2c(CCCCCN)cccc2nc1N [AQ-7, 2-amino-5-(5-aminopentyl)-N,N-dipropylquinoline-3-carboxamide] | < 5.05 | < 5.05
5 | CCCCCc1cc2c(CC3CCCN3C)cc(-c3cccc(S(=O)(=O)N4CC(CO)C4)c3)cc2nc1N (stereo not shown) [AQ-15, [1-[3-[2-amino-5-[(1-methylpyrrolidin-2-yl)methyl]-3-pentyl-7-quinolyl]phenyl]sulfonylazetidin-3-yl]methanol] | < 5.05 | 5.61
6 | CCCCCc1cc2ccc(-c3cccc(S(=O)(=O)N4CC(CO)C4)c3)cc2nc1N [AQ-5, (1-((3-(2-amino-3-pentylquinolin-7-yl)phenyl)sulfonyl)azetidin-3-yl)methanol] | < 5.05 | 6.25
7 | CCCCCc1cc2c(CCCCCNC(=O)OC(C)(C)C)cccc2nc1N [AQ-3, tert-butyl (5-(2-amino-3-pentylquinolin-5-yl)pentyl)carbamate] | < 5.05 | < 5.05
8 | CCCCCc1cc2c(CCCCCN)cc(-c3cccc(S(=O)(=O)N4CC(CO)C4)c3)cc2nc1N [AQ-13, [1-[3-[2-amino-5-(5-aminopentyl)-3-pentyl-7-quinolyl]phenyl]sulfonylazetidin-3-yl]methanol] | < 5.05 | < 5.05

Next, values leading:

Row | pEC50 (human TLR7) | pEC50 (human TLR8) | Compound
9 | < 5.05 | 5.83 | CCCCCc1cc2ccc(-c3cccc(S(=O)(=O)N4CC(CN)C4)c3)cc2nc1N [AQ-12, 7-[3-[3-(aminomethyl)azetidin-1-yl]sulfonylphenyl]-3-pentyl-quinolin-2-amine]
10 | < 5.05 | < 5.05 | CCCCCc1cc2ccc(C(=O)Nc3ccc(N4CCC(C(=O)NCCNC(=O)OC(C)(C)C)CC4)nc3)cc2nc1N [AQ-10, tert-butyl N-[2-[[1-[5-[(2-amino-3-pentyl-quinoline-7-carbonyl)amino]-2-pyridyl]piperidine-4-carbonyl]amino]ethyl]carbamate]
11 | < 5.05 | 5.99 | CCCCCc1cc2c(CCCCCN(C)C)cccc2nc1N [AQ-8, 5-(5-(dimethylamino)pentyl)-3-pentylquinolin-2-amine]
12 | < 5.05 | < 5.05 | CCCN(CCC)C(=O)c1cc2ccccc2nc1N [AQ-6, 2-amino-N,N-dipropylquinoline-3-carboxamide]
13 | < 5.05 | < 5.05 | CCCCCc1cc2ccc(-c3cccc(S(=O)(=O)N4CC(CNC(=O)OC(C)(C)C)C4)c3)cc2nc1N [AQ-11, tert-butylN-[[1-[3-(2-amino-3-pentyl-7-quinolyl)phenyl]sulfonylazetidin-3-yl]methyl] carbamate]
14 | 6.60 | < 5.05 | CCCCCc1cc2c(CCCCCNC(C)=O)cccc2nc1N [AQ-1, N-(5-(2-amino-3-pentylquinolin-5-yl)pentyl)acetamide]
15 | < 5.05 | < 5.05 | CCCCCc1cc2c(CCCCCNC(=O)Nc3cccc(C#N)c3)cccc2nc1N [AQ-2, 1-(5-(2-amino-3-pentylquinolin-5-yl)pentyl)-3-(3-cyanophenyl)urea]
16 | < 5.05 | < 5.05 | CCCCCc1cc2c(CCCCCN/C(=N\c3cccc(C#N)c3)NCCOC)cccc2nc1N [AQ-18, 1-(5-(2-amino-3-pentylquinolin-5-yl)pentyl)-3-(3-cyanophenyl)-2-(2-methoxyethyl)guanidine]
17 | < 5.05 | < 5.05 | CCCCCc1cc2ccc(-c3cccc(S(=O)(=O)N4CC(CN/C(=N\CCOC)Nc5cccc(C#N)c5)C4)c3)cc2nc1N [AQ-17, 1-((1-((3-(2-amino-3-pentylquinolin-7-yl)phenyl)sulfonyl)azetidin-3-yl)methyl)-3-(3-cyanophenyl)-2-(2-methoxyethyl)guanidine]
